Measurements reported in article PMC3108148 (Journal of medicinal chemistry, 2011).

Key:
XIAP linker-BIR2-BIR3 [1] = molecular target: T1, XIAP linker-BIR2-BIR3 (Homo sapiens, UniProt P98170); assay: Cell-free caspase-3/7 functional assay; details: compound 60 μM; XIAP linker-BIR2-BIR3 20 nM
[2] = test system: PARP cleavage and caspase-3 processing in MDA-MB-231 cells; assay: Western blot analysis of PARP cleavage and caspase-3 processing; type: cell-based, human; details: 24 h; for concentration causing PARP cleavage / concentration causing caspase-3 processing: MDA-MB-231, Western blot; for caspase-3 processing and PARP cleavage: 30 nM, MDA-MB-231
MDA-MB-231 xenograft [3] = details: 5 mg/kg, mice; cited from earlier work
[4] = molecular target: cIAP-2 BIR3 (residues 238–349) (Homo sapiens, UniProt Q13489); details: relative to 15; cited from earlier work
[5] = molecular target: cIAP-1 BIR3 (residues 253–363) (Homo sapiens, UniProt Q13490); details: relative to 15; cited from earlier work
[6] = molecular target: XIAP L-BIR2-BIR3 (residues 120–356) (Homo sapiens, UniProt P98170); details: relative to 15; cited from earlier work
[7] = test system: subset of human cancer cell lines; details: cited from earlier work
[8] = molecular target: cIAP1 in MDA-MB-231 cells (Homo sapiens, UniProt Q13490); details: 24 h, MDA-MB-231, Western blot
XIAP linker-BIR2-BIR3 [9] = molecular target: T1, XIAP linker-BIR2-BIR3; assay: Cell-free caspase-9 functional assay; type: biochemical; details: compound as high as 100 μM; XIAP 500 nM
MDA-MB-231 xenograft [10] = details: SCID mice; 27 at 1 or 5 mg/kg i.v.; Taxotere […] i.v. days 2 and 9
Solubility = type: physicochemical

CN[C@@H](C)C(=O)N[C@H]1CCCC[C@H]2CC[C@@H](C(=O)NC(c3ccccc3)c3ccccc3)N2C1=O [Compound 15]
caspase-3/7 activity restored (XIAP linker-BIR2-BIR3 [1]): 40%

CN[C@@H](C)C(=O)N[C@H]1CCCC[C@H]2CC[C@@H](C(=O)N[C@@H](c3ccccc3)c3cn(CCCCc4ccc(CCCCn5cc([C@@H](NC(=O)[C@@H]6CC[C@@H]7CCCC[C@H](NC(=O)[C@H](C)NC)C(=O)N76)c6ccccc6)nn5)cc4)nn3)N2C1=O [Compound 16]
concentration causing PARP cleavage [2]: 3 nM
concentration causing caspase-3 processing [2]: 3 nM
antitumor effect in MDA-MB-231 xenograft model (MDA-MB-231 xenograft [3]): tumor regression
times more potent than 15 in binding to cIAP2 BIR3 protein [4]: 10 times
times more potent than 15 in binding to cIAP1 BIR3 protein [5]: 10 times
times more potent than 15 in binding to XIAP containing both BIR2 and BIR3 domains [6]: > 100 times
concentrations effectively inducing apoptosis and inhibiting cell growth (as low as) [7]: 1 to 10 nM
times more potent than 15 in inducing apoptosis and inhibiting cell growth [7]: 100 times
concentration inducing clear/robust cIAP1 degradation [8]: 1 nM

CC(=O)N[C@@H](Cc1c[nH]c2ccccc12)C(=O)N[C@H]1CCCC[C@H]2CC[C@@H](C(=O)N[C@@H](c3ccccc3)c3cn(CCCCc4ccc(CCCCn5cc([C@@H](NC(=O)[C@@H]6CC[C@@H]7CCCC[C@H](NC(=O)[C@H](Cc8c[nH]c9ccccc89)NC(C)=O)C(=O)N76)c6ccccc6)nn5)cc4)nn3)N2C1=O [Compound 17]
restoration of caspase-9 activity (XIAP linker-BIR2-BIR3 [9]): fails to restore any caspase-9 activity

CN[C@@H](C)C(=O)N[C@H]1CCCC[C@H]2CC[C@@H](C(=O)N[C@@H](c3ccccc3)c3cn(Cc4ccc(Cn5cc([C@@H](NC(=O)[C@@H]6CC[C@@H]7CCCC[C@H](NC(=O)[C@H](C)NC)C(=O)N76)c6ccccc6)nn5)cc4)nn3)N2C1=O [Compound 18, (S,3S,3′S,6S,6′S,10aS,10a′S)-N,N′-((1S,1′S)-(1,1′-(1,4-phenylenebis(methylene))bis(1H-1,2,3-triazole-4,1-diyl))bis(phenylmethylene))bis(6-((S)-2-(methylamino)propanamido)-5-oxodecahydropyrrolo[1,2-a]azocine-3-carboxamide)]
caspase-3 processing and PARP cleavage [2]: fail to induce caspase-3 processing and PARP cleavage

CN[C@@H](C)C(=O)N[C@H]1CCCC[C@H]2CC[C@@H](C(=O)N[C@@H](c3ccccc3)c3cn(CCc4ccc(CCn5cc([C@@H](NC(=O)[C@@H]6CC[C@@H]7CCCC[C@H](NC(=O)[C@H](C)NC)C(=O)N76)c6ccccc6)nn5)cc4)nn3)N2C1=O [Compound 19, (S,3S,3′S,6S,6′S,10aS,10a′S)-N,N′-((1S,1′S)-(1,1′-(1,4-phenylenebis(ethane-2,1-diyl))bis(1H-1,2,3-triazole-4,1-diyl))bis(phenylmethylene))bis(6-((S)-2-(methylamino)propanamido)-5-oxodecahydropyrrolo[1,2-a]azocine-3-carboxamide)]
caspase-3 processing and PARP cleavage [2]: fail to induce caspase-3 processing and PARP cleavage

CN[C@@H](C)C(=O)N[C@H]1CCCC[C@H]2CC[C@@H](C(=O)N[C@@H](c3ccccc3)c3cn(CCCc4ccc(CCCn5cc([C@@H](NC(=O)[C@@H]6CC[C@@H]7CCCC[C@H](NC(=O)[C@H](C)NC)C(=O)N76)c6ccccc6)nn5)cc4)nn3)N2C1=O [Compound 20, (S,3S,3′S,6S,6′S,10aS,10a′S)-N,N′-((1S,1′S)-(1,1′-(1,4-phenylenebis(propane-3,1-diyl))bis(1H-1,2,3-triazole-4,1-diyl))bis(phenylmethylene))bis(6-((S)-2-(methylamino)propanamido)-5-oxodecahydropyrrolo[1,2-a]azocine-3-carboxamide)]
concentration causing PARP cleavage [2]: 3 nM
concentration causing caspase-3 processing [2]: 10 nM

CN[C@@H](C)C(=O)N[C@H]1CCCC[C@H]2CC[C@@H](C(=O)N[C@@H](c3ccccc3)c3cn(CCCCCCc4ccc(CCCCCCn5cc([C@@H](NC(=O)[C@@H]6CC[C@@H]7CCCC[C@H](NC(=O)[C@H](C)NC)C(=O)N76)c6ccccc6)nn5)cc4)nn3)N2C1=O [Compound 21, (S,3S,3′S,6S,6′S,10aS,10a′S)-N,N′-((1S,1′S)-(1,1′-(1,4-phenylenebis(hexane-6,1-diyl))bis(1H-1,2,3-triazole-4,1-diyl))bis(phenylmethylene))bis(6-((S)-2-(methylamino)propanamido)-5-oxodecahydropyrrolo[1,2-a]azocine-3-carboxamide)]
concentration causing PARP cleavage [2]: 3 nM
concentration causing caspase-3 processing [2]: 3 nM

CN[C@@H](C)C(=O)N[C@H]1CCCC[C@H]2CC[C@@H](C(=O)N[C@@H](c3ccccc3)c3cn(CCCCCOCCCCCn4cc([C@@H](NC(=O)[C@@H]5CC[C@@H]6CCCC[C@H](NC(=O)[C@H](C)NC)C(=O)N65)c5ccccc5)nn4)nn3)N2C1=O [Compound 27, (S,3S,3′S,6S,6′S,10aS,10a′S)-N,N′-((1S,1′S)-(1,1′-(oxybis(pentane-5,1-diyl))bis(1H-1,2,3-triazole-4,1-diyl))bis(phenylmethylene))bis(6-((S)-2-(methylamino)propanamido)-5-oxodecahydropyrrolo[1,2-a]azocine-3-carboxamide)]
weight loss / signs of toxicity (MDA-MB-231 xenograft [10]): no signs of toxicity
solubility (Solubility): excellent solubility
